Source: patent publication US20100048548A1, “IMINO-OXAZOLIDINES AND USE THEREOF” (Bayer HealthCare AG, priority 2005, published 2010)

Tests used:
[1] = target: T1, plasmin (Homo sapiens, UniProt P00747); assay: Determination of the selectivity: plasmin inhibition (chromogenic substrate); type: biochemical; conditions: plasmin 3.2 nmol/l, Chromozym Plasmin, 37° C., pH 8.0
T1 construct: To determine the enzymatic activity of trypsin (500 mU/ml) and plasmin (3.2 nmol/l)
Method: (§1) To assess selective FXa inhibition, the test substances are examined for their inhibition of other human serine proteases such as trypsin and plasmin. To determine the enzymatic activity of trypsin (500 mU/ml) and plasmin (3.2 nmol/l), these enzymes are dissolved in Tris buffer (100 mmol/l, 20 mmol/l CaCl2, pH=8.0) and incubated with test substance or solvent for 10 minutes. The enzymatic reaction is then started by adding the corresponding specific chromogenic substrates (Chromozym Trypsin® and Chromozym Plasmin®; from Roche Diagnostics) and the extinction at 405 nm is determined after 20 minutes. All determinations are carried out at 37° C.

[2] = system: trypsin; assay: Determination of the selectivity: trypsin inhibition (chromogenic substrate); type: biochemical, human; conditions: trypsin 500 mU/ml, Chromozym Trypsin, 37° C., pH 8.0
Method: as §1

[3] = target: T2, human factor Xa (FXa) (Homo sapiens, UniProt P00742); assay: Determination of the factor Xa inhibition (chromogenic substrate); type: biochemical; conditions: human FXa 0.5 nmol/l, Pefachrome FXa 150 μmol/l, 25° C., pH 8.3
T2 construct: factor Xa, which is formed from the proenzyme factor X
Method: The enzymatic inhibition of human factor Xa (FXa) is measured using the conversion of a chromogenic substrate specific for FXa. Factor Xa cleaves p-nitroaniline from the chromogenic substrate. The determinations are carried out in microtitre plates as follows:
The test substances, in various concentrations, are dissolved in DMSO and incubated for 10 minutes at 25° C. with human FXa (0.5 nmol/l dissolved in 50 mmol/l of Tris buffer [C,C,C-tris(hydroxymethyl)aminomethane], 150 mmol/l of NaCl, 0.1% BSA [bovine serum albumin], pH=8.3). Pure DMSO is used as control. The chromogenic substrate (150 μmol/l Pefachrome® FXa from Pentapharm) is then added. After an incubation time of 20 minutes at 25° C., the extinction at 405 nm is determined.

T1 sequence (P00747 581-810 limits assumed): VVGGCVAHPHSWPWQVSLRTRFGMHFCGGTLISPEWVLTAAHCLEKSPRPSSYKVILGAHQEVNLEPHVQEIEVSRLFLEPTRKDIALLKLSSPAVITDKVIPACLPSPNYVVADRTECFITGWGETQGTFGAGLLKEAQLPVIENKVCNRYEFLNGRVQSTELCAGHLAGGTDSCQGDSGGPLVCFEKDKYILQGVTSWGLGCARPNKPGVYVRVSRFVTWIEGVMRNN
T1 sequence (P00747 97-580 partner limits assumed): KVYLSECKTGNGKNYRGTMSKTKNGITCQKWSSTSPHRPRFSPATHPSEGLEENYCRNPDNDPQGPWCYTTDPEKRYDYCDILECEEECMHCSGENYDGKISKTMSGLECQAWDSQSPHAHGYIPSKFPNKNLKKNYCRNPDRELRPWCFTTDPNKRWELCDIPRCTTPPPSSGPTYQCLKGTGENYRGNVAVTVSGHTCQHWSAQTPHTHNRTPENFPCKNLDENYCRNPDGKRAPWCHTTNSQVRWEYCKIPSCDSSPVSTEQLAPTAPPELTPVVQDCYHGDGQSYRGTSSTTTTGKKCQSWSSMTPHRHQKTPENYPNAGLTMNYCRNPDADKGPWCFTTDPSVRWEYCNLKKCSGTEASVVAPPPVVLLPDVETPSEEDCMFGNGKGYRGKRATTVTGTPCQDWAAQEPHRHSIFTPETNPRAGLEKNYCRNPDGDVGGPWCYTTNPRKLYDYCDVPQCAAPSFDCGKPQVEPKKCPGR
T2 sequence (P00742 235-488 limits assumed): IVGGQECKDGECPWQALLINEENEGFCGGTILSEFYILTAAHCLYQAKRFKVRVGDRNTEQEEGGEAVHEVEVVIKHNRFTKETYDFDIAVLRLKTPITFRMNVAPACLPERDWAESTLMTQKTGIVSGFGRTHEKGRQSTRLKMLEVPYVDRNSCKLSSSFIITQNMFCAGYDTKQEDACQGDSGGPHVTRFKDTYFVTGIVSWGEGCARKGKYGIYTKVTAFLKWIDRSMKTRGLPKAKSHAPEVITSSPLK
T2 sequence (P00742 41-179 partner limits assumed): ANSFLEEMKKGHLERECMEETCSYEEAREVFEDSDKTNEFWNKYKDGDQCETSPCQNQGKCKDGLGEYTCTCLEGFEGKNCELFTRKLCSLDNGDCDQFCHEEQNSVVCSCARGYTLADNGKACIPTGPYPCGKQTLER

IC50 [1]: > 10 µM
IC50 [2]: > 10 µM
IC50 [3]: 0.0054 µM
Structure (SMILES): N=C1O[C@@H](CNC(=O)c2ccc(Cl)s2)CN1c1ccc(N2CCOCC2=O)cc1 [Example 1, 5-Chloro-N-({(5S)-2-imino-3-[4-(3-oxomorpholin-4-yl)phenyl]-1,3-oxazolidin-5-yl}methyl)-thiophene-2-carboxamide]
